For one assay, the system named is NSCs. The assay can be described thus: Proteomics and antibody microarray of NSCs. The assay is classed as cell-based, rat. To be noted: 20 μM Aβ25-35 + 10 μM PEP1, 48 hours, antibody microarray. How it is done:
The cultured NSCs were washed with cold PBS twice, and disrupted in a sample lysis buffer using a sonicator for 10 seconds. In addition, the cells were disrupted again for a further 1 hour at room temperature. After centrifugation at 15° C. and 15000 g for 1 hour, a non-water-soluble sample was eliminated, and only water-soluble samples were subjected to two-dimensional electrophoresis. A protein concentration was quantified by a Bradford method.
200 μg of a protein sample was loaded on an Immobiline DryStrip gel. […] was performed at 20° C. For electron focusing, a voltage was increased from 150 volts to 3500 volts over 3 hours to allow the sample to enter the gel. Before entering two-dimensionally, the sample was cultured in an equilibration buffer for 10 minutes. […]
For quantitative analysis, images were analyzed with a PDQuest system. […]
To identify a protein through peptide mass fingerprinting, a protein spot was cleaved into smaller peptides using trypsin, well mixed with a-cyano-4-hydroxycinnamic acid in 50% acetonitrile/0.1% TFA, and then analyzed with MALDI-TOF. […]
For antibody microarray analysis, a panorama antibody cell signaling kit was used. […] Array slides were read using a scanner, and results from the obtained scans were analyzed using an analysis program.

Another assay has as its system GFAP. The assay can be described thus: GFAP expression in 3XTg-AD mice (western blotting). It counts as in vivo. As to conditions: hippocampus and whole brain; s.c. three times a week for two months; vs control and Donepezil, same amount. How it is done:
To test the efficacy of PEP1 on AD, AD transgenic mice (3XTg-AD) were purchased from Jackson Laboratory. Genetic characteristics of the transgenic mice are as follows: B6; 129-Psen1tm1Mpm Tg(APPSwe, tauP301L)1Lfa/Mmjax. […] One week after mice were confirmed as pregnant, new mice were delivered and weaned for 3 weeks. Two weeks later, mature mice were obtained.
During the preliminary breeding and the entire period of the experiment, a temperature was maintained at 23±2° C. and a relative humidity was maintained at 60±10%, and then the mice were raised under a 12-hour dark/light cycle. Experimental animals were divided into five groups, and each group included 10 animals. The divided experimental groups are as follows. […]
The PEP1, physiological saline, donepezil and scramble peptide were subcutaneously injected at each concentration three times a week for two months from the age of 12 months, and then two months after the injection, cognitive/memory behavior tests (passive avoidance test and Y maze test) were performed to examine a degree of improvement in cognitive function and memory function. After the brain was extracted to separate the hippocampus, the amounts of amyloid beta in the hippocampus and the whole brain, and the amounts of an amyloid beta oligomer and NFT generated by tau hyperphosphorylation were determined by western blotting and immunostaining. […]
A general note: Immunoblotting shows a protein as a band on a membrane.

In the case of “EARPALLTSRLRFIPK (homo sapiens) [PEP1, hTERT-derived peptide consisting of 16 amino acids, telomerase location [611-626]]”, the “phosphorylated proteins associated with proliferation” value with NSCs is recorded as “recovered”. The GFAP result with GFAP is on record as “reduced”.
